Measurements taken from ChEMBL document CHEMBL4257515, “Assessment of the trifluoromethyl ketone functionality as an alternative zinc-binding group for selective HDAC6 inhibition” (Medchemcomm, 2018).
The source made the active and inactive calls. The calls are words filed in the database; no cut-off is given here.

Experiments:
[1] = target: T1, Protein deacetylase HDAC6 (Homo sapiens) (UniProt Q9UBN7); test: Inhibition of full length recombinant human HDAC6 at 10 uM using Fluor-de-Lys deacetylase as substrate preincubated for 15 mins followed by substrate addition and measured after 60 mins by spectrofluorimetric method relative to control
T1 sequence (whole entry): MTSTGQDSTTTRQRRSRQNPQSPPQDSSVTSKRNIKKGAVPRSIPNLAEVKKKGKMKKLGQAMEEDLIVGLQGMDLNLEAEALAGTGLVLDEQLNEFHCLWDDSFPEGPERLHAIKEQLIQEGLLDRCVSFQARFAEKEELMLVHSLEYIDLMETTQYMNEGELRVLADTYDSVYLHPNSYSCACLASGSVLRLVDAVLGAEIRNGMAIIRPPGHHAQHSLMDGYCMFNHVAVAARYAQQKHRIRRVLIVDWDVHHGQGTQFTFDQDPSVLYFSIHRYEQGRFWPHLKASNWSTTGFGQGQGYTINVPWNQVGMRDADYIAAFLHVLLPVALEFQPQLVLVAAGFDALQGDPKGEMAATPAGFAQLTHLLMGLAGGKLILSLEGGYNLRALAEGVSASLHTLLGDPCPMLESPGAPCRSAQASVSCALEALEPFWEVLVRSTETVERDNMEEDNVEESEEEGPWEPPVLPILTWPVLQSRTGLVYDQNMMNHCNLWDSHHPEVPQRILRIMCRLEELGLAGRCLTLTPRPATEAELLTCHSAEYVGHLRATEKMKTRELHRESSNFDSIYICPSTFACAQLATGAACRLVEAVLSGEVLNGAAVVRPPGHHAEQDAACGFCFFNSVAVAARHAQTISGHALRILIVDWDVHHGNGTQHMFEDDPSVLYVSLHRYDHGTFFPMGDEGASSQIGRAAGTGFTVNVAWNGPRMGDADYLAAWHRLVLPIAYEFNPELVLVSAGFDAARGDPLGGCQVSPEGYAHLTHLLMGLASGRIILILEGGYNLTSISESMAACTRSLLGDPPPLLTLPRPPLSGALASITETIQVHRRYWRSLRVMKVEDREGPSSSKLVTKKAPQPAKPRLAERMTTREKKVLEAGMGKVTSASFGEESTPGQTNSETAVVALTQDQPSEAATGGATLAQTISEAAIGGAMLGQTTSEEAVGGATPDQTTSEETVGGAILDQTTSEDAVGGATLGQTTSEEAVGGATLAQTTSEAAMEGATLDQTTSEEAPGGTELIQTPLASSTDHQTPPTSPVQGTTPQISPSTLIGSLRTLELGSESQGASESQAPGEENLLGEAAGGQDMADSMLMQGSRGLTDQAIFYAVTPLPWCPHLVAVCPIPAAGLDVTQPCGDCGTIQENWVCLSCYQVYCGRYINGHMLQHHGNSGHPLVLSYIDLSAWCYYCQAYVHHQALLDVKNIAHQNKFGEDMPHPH

[2] = target: T1, Protein deacetylase HDAC6 (Homo sapiens); test: Inhibition of HDAC6 in human SKOV3 cells assessed as increase in acetylated tubulin levels at 1 uM after 1 hr by immunoblot method; format: cell-based
[3] = target: Histone deacetylase (Homo sapiens) (UniProt Q13547+O15379+Q9UBN7+Q92769+Q9UQL6+Q8WUI4+Q9BY41+Q96DB2+P56524+Q9UKV0+Q969S8); test: Inhibition of nuclear HDAC in human SKOV3 cells assessed as increase in acetylated histone H3 levels at 1 to 50 uM after 1 hr by immunoblot method; format: cell-based
[4] = target: T1, Protein deacetylase HDAC6 (Homo sapiens); test: Inhibition of HDAC6 in human SKOV3 cells assessed as increase in acetylated tubulin levels at 1 to 50 uM after 1 hr by immunoblot method; format: cell-based
SK-OV-3 [5] = test: Antiproliferative activity against human SKOV3 cells at 1 to 50 uM measured every 2 hrs for 200 hrs by IncuCyte ZOOM cell confluence assay; format: functional, cell-based
SK-OV-3 [6] = test: Antiproliferative activity against human SKOV3 cells at 10 uM measured every 2 hrs for 200 hrs by IncuCyte ZOOM cell confluence assay; format: functional, cell-based

| Compound | inhibition [1] | also measured |
| --- | --- | --- |
| O=C(c1ccccc1)C(F)(F)F | 0% | – |
| O=C(c1ccc(Cn2c3c(c4ccccc42)C[S+]([O-])CC3)cc1)C(F)(F)F (stereo not given) | 17% | – |
| O=C(NO)c1ccc(Cn2c3c(c4cc(F)ccc42)C[S+]([O-])CC3)cc1 (stereo not given) | 100% | inhibition [2]: Active |
| O=C(c1ccc(Cn2c3c(c4cc(F)ccc42)C[S+]([O-])CC3)cc1)C(F)(F)F (stereo not given) | 25% | inhibition [3]: inactive; inhibition [4]: inactive; Activity (SK-OV-3 [5]): inactive |
| O=C(CCCCCCC(=O)Nc1ccccc1)NO | – | Activity (SK-OV-3 [6]): Active |
| O=C(NO)c1ccccc1 | 88% | – |
